Assay [1] has as its system murine splenocytes. The experiment in a line: Immunostimulating power: proliferation of murine splenocytes (tritiated thymidine incorporation). The following applies: for stimulation index (IS): mean of three measurements. It is filed as cell-based. The source says: Then experimental procedure is extracted from: J. Kunert-Radek, H. Stepien, K. Lyson and M. Pawlikowki--"Effects of calcium channel modulators on the proliferation of mouse spleen lymphocytes in vitro"--Agents and Actions, vol. 29 Nos 3-4 (1990), p. 254-258.
The cell proliferation is followed by the measurement of the incorporation rate of the tritiated thymidine in the cells, expressed in number of desintegrations per mn, deduced from the background noise.
The results obtained with an immunostimulator of reference, the concanavaline A, are given for comparison.
The immunostimulating effect is expressed with a stimulation index (SI). [formula] The values correspond to the mean value of three measurements.

Assay [2] can be described thus: Inhibitory power on the hydroxyl radical (deoxyribose oxidation, EDTA/iron, H2O2, thiobarbituric acid/MDA detection). It is filed as biochemical. The following applies: antioxidant 10 mM; deoxyribose substrate. An excerpt: Experimental procedure described by J. M. C. Gutteridge in Biochemistry Journal, vol 224 (1984), p. 761-767: oxidation substrate: deoxyribose, system of production of the hydroxyl radical OH.:
Detection: thiobarbituric acid/mondialdehyde (MDA)
Antioxidant of reference: dipeptide β-alanyl-L-histidine (sensitive to enzymatic deactivation)

The nature of assay [3]: Inhibitory power on the superoxide anion (xanthine oxydase/hypoxanthine, cytochrome C reduction at 550 nm). The following applies: for ability to inhibit the superoxide anion / reduction of cytochrom c (in words): enzymatic system generating superoxide anion. In kind it is biochemical. An excerpt:
System of production of superoxide anion:xanthine oxydase/hypoxanthine (absence of iron).
The superoxide anion is a reducing substance. It is more especially able to reduce a substrate, the cytochrome C. Its reduction is followed with ultraviolet spectrophotometry to 550 nm.
The percentage of inhibition is described as follows: […]

The test system of assay [4] is human monocytes. The experiment in a line: Cell proliferation of a homogenous population of human monocytes (tritiated thymidine incorporation). In kind it is cell-based. An excerpt: In order to specify the pseudodipeptides mode of action, a second experiment has been carried out on an homogenous population of human monocytes.
Cell proliferation has been evaluated the same way as previously: […]

As for `N[C@@H](CCC(=O)O)C(=O)NCCc1c[nH]cn1` [L-glutamyl-histamine, L-Glutamyl-histamine], the “stimulation index (IS)” value is reported as 7.8 in assay [1] (2.5 μg/ml); 42.7 in assay [1] (5.0 μg/ml); 42.1 in assay [1] (10.0 μg/ml); 5.6 in assay [1] (25.0 μg/ml); 8.23 in assay [4] (2.50 μg/ml); 39.80 in assay [4] (5.00 μg/ml). The “stimulation index (IS)” value in assay [4] (10.00 μg/ml) is reported as 23.50; in assay [4] (25.00 μg/ml), 2.50. Moreover, the “concentration of maximal immunostimulating effect” value in assay [1] (murine splenocytes) was 5 µg/mL. In assay [2], the “% inhibiton (hydroxyl radical OH.)” value was 0%. The “% of inhibition (superoxide anion, cytochrome C reduction)” value was 3,5% in assay [3] (1 mM), 14% in assay [3] (5 mM), 24% in assay [3] (10 mM) and 35% in assay [3] (20 mM). The “ability to inhibit the superoxide anion / reduction of cytochrom c (in words)” value in assay [3] is “strongly inhibit”. Besides, the “average factor of activity versus concanavaline A” value in assay [4] (human monocytes) is 1.34.
For the molecule `NCCC(=O)N[C@@H](Cc1c[nH]cn1)C(=O)O` [β-alanyl-L-histidine, reference compound], the “% inhibiton (hydroxyl radical OH.)” value in assay [2] was determined as 38%. Besides, in assay [3], the “ability to inhibit the superoxide anion / reduction of cytochrom c (in words)” value is recorded as “do not have the ability to inhibit”.
Take concanavaline A [reference compound]: the “stimulation index (IS)” value in assay [1] (2.5 μg/ml) stood at 8.3; in assay [1] (5.0 μg/ml), 33.4; in assay [1] (10.0 μg/ml) it was 61.5; in assay [1] (25.0 μg/ml), 4.3; in assay [4] (2.50 μg/ml), 4.82; in assay [4] (5.00 μg/ml), 29.60. Further, in assay [4] (10.00 μg/ml), the “stimulation index (IS)” value was 21.10.
Consider `O=C(NCCc1c[nH]cn1)[C@@H]1CCCN1` [L-prolyl-histamine], for which, in assay [2], the “% inhibiton (hydroxyl radical OH.)” value came to 62%. The “ability to inhibit the superoxide anion / reduction of cytochrom c (in words)” value in assay [3] is “do not have the ability to inhibit”.

The record behind these values is patent US6046340A, “Imidazole containing pseudodipeptide product and compositions containing the same” (Exsymol Societe Anonyme Monegasque, priority 1993, dated 2000).
